# Columns and labels:
# Assay type in all cases: binding
# CX3CR1 = molecular target: T1, CX3CR1 (Homo sapiens, UniProt P49238); assay: NanoBRET screen HiBiT-CX3CR1 in HEK293; conditions: CX3CR1
# T1 construct: purchased Promega (in-house HiBiT-GPCR construct library, NanoBRET)
# T1 sequence (P49238 1-355): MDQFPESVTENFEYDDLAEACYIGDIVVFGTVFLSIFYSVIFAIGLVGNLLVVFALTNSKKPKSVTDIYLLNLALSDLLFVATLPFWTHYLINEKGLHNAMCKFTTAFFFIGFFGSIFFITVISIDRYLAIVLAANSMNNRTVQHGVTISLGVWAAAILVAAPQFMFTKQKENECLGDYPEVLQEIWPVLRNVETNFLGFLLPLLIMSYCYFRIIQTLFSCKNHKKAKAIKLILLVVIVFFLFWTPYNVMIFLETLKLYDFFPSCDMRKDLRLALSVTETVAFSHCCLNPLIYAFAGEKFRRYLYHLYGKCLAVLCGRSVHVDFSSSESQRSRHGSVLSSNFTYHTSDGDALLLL
# Procedure: (§1) Each tracer candidate was screened across the entire library of HiBiT-GPCR constructs using NanoBRET as the detection modality. As depicted in Figure 4A, the specificity of interactions was evaluated through decrease in BRET due to competitive displacement of a bound tracer by excess parental compound. Each tracer was analyzed for binding to each HiBiT-GPCR fusion in the absence and in the presence of competing parental compound. Briefly, HEK293 cells were transfected with HiBiT-GPCR constructs diluted into promoterless DNA to reduce expression and maximize translocation to the cell surface. Each tracer candidate was then screened at concentrations of 1 μM and 0.1 μM across cells expressing these fusions. Cells were treated for 1.5 h with tracer either alone or in the presence of 20 μM competing parental compound (i.e., control). BRET was measured upon addition of purified LgBiT and subsequent complementation with HiBiT genetically fused to a GPCR. The specificity of interactions was assessed through a decrease in BRET signal due to competitive displacement of the bound tracer. To further gauge the robustness of these interactions, the fold response over the control (i.e., BRETtracer/BRETcontrol) was calculated. We chose a 1.5-fold response, which translates to ≥7-fold signal over noise as the minimal threshold required to score an interaction as positive. […]. Below we highlight the screening results obtained for our exemplary fluorescent tracers based on Clozapine, Amitriptyline and AZD1283.
# (§2) HiBiT-GPCR DNA constructs were diluted in 10 mM Tris pH 8 to a final concentration of 0.01 μg/μL, arrayed in 96-well plates and stored at −20 °C. For transfection, HEK293 cells were suspended in Opti-MEM (without phenol red) supplemented with 2% fetal bovine serum (Seradigm) and 100 units/mL penicillin–streptomycin (Gibco) at a final concentration of 220,000 cells/mL and dispensed into white 96-well plates at 90 μL/well. Subsequent transfections and screens were carried using an Agilent Bravo Automated Liquid Handling Platform. First, the 96-well HiBiT DNA arrays were diluted 25-fold in Opti-MEM (without serum or phenol red) to a final concentration of 0.0004 μg/μL and 20 μL of the diluted DNAs were transferred into new 96-well plates. Next, promoterless carrier DNA (1 μg/μL) was diluted 25-fold (0.04 μg/μL) and then dispensed into the diluted arrays at 20 μL/well. Following brief mixing, Viafect transfection reagent (Promega) diluted 16-fold into Opti-MEM was dispensed into the plates at 40 μL/well. After mixing by pipetting, plates were incubated for 10 min on the pipetting station deck. The DNA-transfection reagent complexes were then added to plates containing cells. To facilitate the screen, 10 μL of DNA-transfection reagent complexes were added in duplicates to the top 4 and bottom 4 rows, resulting in two identical 48-well arrays per plate. Plates with transfected cells were incubated for 18–20 h at 37 °C/5% CO2. A screen of each tracer across the entire library using two different concentrations requires duplicate plates of transfected cells. Depending on the number of tracers being screened, transfections can be scaled up using the same ratios. The next day, for each tracer, four 20× screening solutions in tracer dilution buffer (Promega) were prepared: two duplicates at final concentration of 20 μM and two duplicates at a final concentration of 2 μM. A competing unmodified compound was added to one of each duplicate at a final concentration of 400 μM. The four resulting solutions were diluted 4-fold in Opti-MEM without serum or phenol red to generate 5× solutions (5 µM and 0.5 µM tracer +/− 100 μM competing compound). To screen the library, a BioTek MultiFlo FX liquid dispenser was used to dispense 22.5 µL of tracer solution to the top 4 rows and 22.5 µL tracer + competing compound solution to the 4 bottom rows. Plates were briefly mixed on an orbital shaker and incubated for 1.5 h at room temperature. […]
# CCKBR = molecular target: T2, CCKBR (Homo sapiens, UniProt P32239); assay: NanoBRET screen HiBiT-CCKBR in HEK293; conditions: CCKBR
# T2 construct: purchased Promega (in-house HiBiT-GPCR construct library, NanoBRET)
# T2 sequence (P32239 1-447): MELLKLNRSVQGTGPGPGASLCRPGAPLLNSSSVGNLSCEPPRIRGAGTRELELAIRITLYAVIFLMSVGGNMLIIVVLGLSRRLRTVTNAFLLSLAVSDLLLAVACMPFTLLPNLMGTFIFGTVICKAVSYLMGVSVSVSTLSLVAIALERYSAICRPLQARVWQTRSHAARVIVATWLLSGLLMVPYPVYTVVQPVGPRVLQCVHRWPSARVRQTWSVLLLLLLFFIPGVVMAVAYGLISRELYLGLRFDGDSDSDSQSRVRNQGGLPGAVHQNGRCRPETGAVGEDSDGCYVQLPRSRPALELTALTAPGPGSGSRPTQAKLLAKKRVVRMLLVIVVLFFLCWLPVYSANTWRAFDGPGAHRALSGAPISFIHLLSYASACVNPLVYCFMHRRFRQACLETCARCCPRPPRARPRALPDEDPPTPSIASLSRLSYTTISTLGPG
# Procedure: as §1, §2
# C3AR1 = molecular target: T3, C3AR1 (Homo sapiens, UniProt Q16581); assay: NanoBRET screen HiBiT-C3AR1 in HEK293; conditions: C3AR1
# T3 construct: purchased Promega (in-house HiBiT-GPCR construct library, NanoBRET)
# T3 sequence (Q16581 1-482): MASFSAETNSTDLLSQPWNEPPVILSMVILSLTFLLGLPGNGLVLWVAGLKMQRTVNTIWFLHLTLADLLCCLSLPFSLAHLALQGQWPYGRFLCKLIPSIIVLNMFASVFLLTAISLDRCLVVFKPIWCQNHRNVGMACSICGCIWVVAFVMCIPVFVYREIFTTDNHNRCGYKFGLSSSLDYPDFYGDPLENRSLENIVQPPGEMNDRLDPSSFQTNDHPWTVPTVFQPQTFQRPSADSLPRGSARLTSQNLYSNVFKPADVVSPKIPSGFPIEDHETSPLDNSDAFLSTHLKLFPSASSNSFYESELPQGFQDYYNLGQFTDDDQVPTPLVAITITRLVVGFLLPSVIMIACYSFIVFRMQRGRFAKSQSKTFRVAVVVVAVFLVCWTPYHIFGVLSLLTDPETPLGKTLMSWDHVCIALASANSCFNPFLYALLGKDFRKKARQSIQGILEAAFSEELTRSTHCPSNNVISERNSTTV
# Procedure: as §1, §2
# LHCGR = molecular target: T4, LHCGR (Homo sapiens, UniProt P22888); assay: NanoBRET screen HiBiT-LHCGR in HEK293; conditions: LHCGR
# T4 construct: purchased Promega (in-house HiBiT-GPCR construct library, NanoBRET)
# Procedure: as §1, §2
# T4 sequence (P22888 27-699): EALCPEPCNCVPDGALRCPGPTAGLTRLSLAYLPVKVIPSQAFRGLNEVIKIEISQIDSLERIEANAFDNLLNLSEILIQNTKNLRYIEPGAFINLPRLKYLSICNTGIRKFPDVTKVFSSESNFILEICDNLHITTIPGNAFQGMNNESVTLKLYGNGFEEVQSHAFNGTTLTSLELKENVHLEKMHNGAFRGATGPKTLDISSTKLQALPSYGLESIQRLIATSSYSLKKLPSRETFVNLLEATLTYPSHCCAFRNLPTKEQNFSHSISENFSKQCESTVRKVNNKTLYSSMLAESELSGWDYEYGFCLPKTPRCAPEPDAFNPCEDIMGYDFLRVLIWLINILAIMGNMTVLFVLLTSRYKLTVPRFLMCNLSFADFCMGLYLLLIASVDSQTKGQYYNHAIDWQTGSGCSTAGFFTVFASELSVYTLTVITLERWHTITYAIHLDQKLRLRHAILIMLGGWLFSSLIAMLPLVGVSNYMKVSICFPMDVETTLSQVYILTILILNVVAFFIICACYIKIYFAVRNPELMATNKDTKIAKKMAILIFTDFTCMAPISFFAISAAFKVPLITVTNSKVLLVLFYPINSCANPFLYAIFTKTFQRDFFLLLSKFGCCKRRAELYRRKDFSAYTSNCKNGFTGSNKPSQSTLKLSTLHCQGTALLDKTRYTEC
structure (smiles),measurement,setting,value
CCCn1c(=O)c2[nH]c(-c3ccc(OCC(=O)NCCNC(=O)CCOCCNC(=O)c4ccc(CNC(=O)CCc5ccc6n5[B-](F)(F)[N+]5=C(c7ccc[nH]7)C=CC5=C6)cc4)cc3)nc2n(CCC)c1=O [XAC-3-NB590],NanoBRET Fold Response,CX3CR1; tracer 0.1μM,0.87
same,NanoBRET Fold Response,CX3CR1; tracer 1μM,0.83
same,NanoBRET Fold Response,CCKBR; tracer 0.1μM,1.02
same,NanoBRET Fold Response,CCKBR; tracer 1μM,0.85
same,NanoBRET Fold Response,C3AR1; tracer 0.1μM,1.15
same,NanoBRET Fold Response,C3AR1; tracer 1μM,0.96
same,NanoBRET Fold Response,LHCGR; tracer 0.1μM,1.01
same,NanoBRET Fold Response,LHCGR; tracer 1μM,1.00

# — PMC8151276, “An Integrated Approach toward NanoBRET Tracers for Analysis of GPCR Ligand Engagement” (Molecules, 2021)
